Data on five compounds can be found in PMC11220654, “A Frog Skin‐Derived Peptide Targeting SCD1 Exerts Radioprotective Effects Against Skin Injury by Inhibiting STING‐Mediated Inflammation” (Advanced Science, 2024).

Residues, ends and D or L forms follow the SMILES beside them. No end group written: not given here. *: point of attachment. Cbz = O=C(OCc1ccccc1)*

For series [1], the system named is TBK1 in HaCaT cells. The series can be described thus: TBK1 protein level and ubiquitination (Western blotting, IP). The class given is cell-based, human. From the text: Here, we further explored whether and how RIFSP‐2 decreased the protein level of TBK1 in HaCaT cells. […] Since the degradation of TBK1 protein was reported to be regulated by either ubiquitination mediated proteasome pathway^[ [33] ^] or chaperone‐mediated autophagy signaling,^[ [34] ^] we testified the influence of the protein synthesis inhibitor (CHX) and the proteasome inhibitor (MG132) in RIFSP‐2 treated HaCaT cells. […] Then we analyzed the colocalization of TBK1 and lysosomes through confocal immunofluorescence microscopy assays. Although, administration of RIFSP‐2 induced a transient decrease of TBK1 fluorescence intensity (Figure S5K,L, Supporting Information), the co‐localization assays didn't support the increase of TBK1 location in lysosomes in RIFSP‐2 treated HaCaT cells (Figure S5M, Supporting Information).
Fig. S5 Influence of RIFSP-2 on STING activation and TBK1 expression in HaCaT […]
Communities classified based on the association network of the different metabolites in irradiated cells treated with or without RIFSP -2. (B) Structural character analysis of the lipid metabolites in irradiated cells treated with or without RIFSP -2. (C) Dose dependent induction of phosphorylation of STING and downstream TBK1 detected through western blotting. […] (M) Pearson correlation coefficient was calculated through Image J to explore the colocalization between TBK1 and […]
For orientation: A western blot detects proteins with antibodies after separation by electrophoresis.

Series [2] relates to WS1 cells. Put plainly: Intracellular uptake of FITC-labeled peptides (confocal microscopy, flow cytometry). It counts as cell-based. From the text: (§1) Distinct from previous reports, the RIFSPs were obtained from skin tissue crude extracts but not from skin secretions. In addition, the administration of exogenous RIFSPs protected cultured skin cells, which hints that some RIFSPs may exert membrane permeability. Therefore, we synthesized FITC‐labeled RIFSPs‐2/5/9/10 and evaluated their possible intracellular uptake by skin cells. […] Glycosaminoglycans have been reported to affect the efficiency of cellular uptake of a wide range of cell penetrating peptides,^[ [27] ^] and we therefore used the competitive inhibitor heparin to investigate whether internalization of FITC‐RIFSP‐2 was dependent on recognition by glycosaminoglycans on the cell surface.
After forming electrostatic interactions with the plasma membrane, peptides principally penetrate into cells via macropinocytosis.^[ [28] ^] […]
(A) Administration of FITC-labeled RIFSPs to WS1 cells and identification of the membrane […] of RIFSP-2 through confocal microscopy. (B)Time- and dose-dependent uptake of FITC-RIFSP-2 by WS1 cells detected through confocal microscopy and flow cytometry analysis. […] Conditioned medium from WS1 cells pretreated with RIFSP-2 increased MMP of irradiated HaCaT cells and vice versa, detected by JC-1(G and H) and Mito-Tracker Red CMXRos (I) staining (n = 4, ** P < 0.01).

Series [3] relates to HaCaT cells. The description is as above. The class given is cell-based.
Excerpt: as §1
Figure 2 Macropinocytosis‐mediated uptake of radiation‐induced frog skin peptide 2 (RIFSP‐2) protects skin cells against radiation‐induced injury. […] B) Time‐ and dose‐dependent uptake of FITC‐RIFSP‐2 by HaCaT cells detected through flow cytometry analysis. […] The effect of RIFSP‐2 on D) cell proliferation, E) cell cycle, and F,G) senescence, as detected by colony formation assay, propidium iodide (PI) staining and SA‐β‐Gal staining analysis, respectively. […] M) Effect of RIFSP‐2 on the homeostasis of actin filaments in irradiated skin cells, as detected by rhodamine phalloidin and G‐actin staining assays. […]

Series [4] deals with skin tissues of mice. As to conditions: mouse, in vivo, sc.
In series [5] the test system is STING signaling in HaCaT cells. The series can be described thus: STING downstream signals and inflammatory factors with LPC (18:1) (Western blotting, ELISA). The class given is cell-based, human. On the procedure: Since RIFSP‐2 directly restrained SCD1 and modulated neutral lipid droplets, we further investigated whether alteration of lipid profiles by RIFSP‐2 interfered with STING activation in response to irradiation. […] Furthermore, we investigated the influence of RIFSP‐2 on STING‐regulated inflammatory factors, including IFN‐β, TNF‐α, IL‐1, and IL‐6. […] Nevertheless, significant increase of IFN‐β production in acute stage and TNF‐α production in relative late stage (48 h) in macrophage cells were detected through both Western blotting and ELISA assays (Figure 4F,G).
2.6 Protein-protein interaction analysis
The identified databases of specific binding proteins for RIFSP-2 and STING in irradiated skin cells were merged and the confidence score of interactions >0.7 were regarded as high confidence in alinement of STRING database. Finally, the visualization of this protein-protein interaction was realized through the Cytoscape software.
2.7 Assessment of cytokines by Elisa
HaCaT and RAW264.7 cells were cultivated in 6 cm plates at a density of 5 × 10^5 cells/mL with 2 mL medium per well and treated with LPC (18:1) plus RIFSP-2 for 24 h. 6 or 48 h after irradiation, cytokine concentrations in the […] were measured by ELISA according to the instructions provided by the manufacturer (NEOBIOSCIENCE). The absorbance was detected using a BioTek reader (Synergy HTX, Winooski, USA) at 450 nm. […]

On to `CCN(CC)CCCC(C)Nc1ccnc2cc(Cl)ccc12` (stereo not drawn) [CQ, chloroquine], for which the “influence on TBK1 degradation caused by RIFSP-2” value in series [1] (10 nM chloroquine 4 hours, then 15 µM RIFSP-2 24 hours) was “little influence of lysosomes in TBK1 degradation”.
For the compound `C=C1[C@@H](C)[C@H]2[C@H](Cc3ccccc3)NC(=O)[C@]23[C@H](OC(C)=O)/C=C/[C@@](C)(O)C(=O)[C@@H](C)C/C=C/[C@H]3[C@@H]1O` [CytD, cytochalasin D], the “effect on WS1 cells” value in series [2] (after CytD administration in the uptake study) is “swelled and subsequently died in 30 min”.
Regarding `CC(C)C[C@@H](C=O)NC(=O)[C@H](CC(C)C)NC(=O)[C@H](CC(C)C)NC(=O)OCc1ccccc1` [MG132] (Cbz-Leu-Leu-Leu-aldehyde), the “influence on the reduction of TBK1 protein level by RIFSP-2” value in series [1] (24 h after RIFSP-2 treatment (15 µM), MG132 10 µM pretreated 2 hours) is recorded as “abrogated the reduction of TBK1 protein level”.
In the case of LAAGGYDVDKNNSRLK [RIFSP‐2], in series [3], the “uptake in HaCaT cells” value is “time‐ and dose‐dependent manner”. In addition, the “time at which the FITC signal could be detected” value in series [2] is on record as “as soon as one hour after administration”. In addition, in series [4], the adverse effects entry is listed as “did not cause obvious adverse effects” and the “histological examination of the skin tissues” value is given as “no significant differences”.
Turning to LPC (18:1), the “accumulation of TGF-β, TNF-α, IL-1 and IL-6” value in series [5] (keratinocytes but not macrophage cells, Western blotting) is listed as “aggravated the accumulation”. Moreover, in series [5] (supplementation, dose-dependent manner (Figure S5C)), the “phosphorylation of STING and TBK1” value was “elevated the phosphorylation of both STING and its substrate TBK1”.
